Like-named read-outs stand apart in the source and are kept apart here. Marks after values point to notes of the source that are not given here. Residues, ends and D or L forms follow the SMILES beside them.
Assays:
[1] = tested on: insulin receptor (IR); insulin-induced IR-Rluc/IRS1-YFP BRET in HEK293 cells; assay: BRET assay of IR activation, peptides combined with insulin; format: cell-based, human; details: for insulin-induced BRET, % of insulin's response in the vehicle, Average: Average of Experiments 1-7; for insulin-induced BRET, % of insulin's response in the vehicle, Average / insulin-induced BRET, % of insulin's response in the vehicle / % of maximal BRET (insulin-induced): 1 μM insulin + 0.1 mg/ml peptide; for insulin-induced BRET, % of insulin's response in the vehicle, Average / insulin-induced BRET, % of insulin's response in the vehicle: HEK293, minimal data set for Figure 2; for % of maximal BRET (insulin-induced) / profile on insulin-dependent BRET response in combined treatment (in words): HEK293 cells; for % of maximal BRET (insulin-induced): 1 hour, 37°C, % of insulin's response in the vehicle taken as 100%, mean ± SD of five to seven independent experiments in triplicate; for profile on insulin-dependent BRET response in combined treatment (in words): 0.1 mg/ml peptide + 1 μM insulin, compared to insulin alone (Vehicle)
Procedure: (§1) HepG2 and HEK293 cells were maintained at 37°C, 5% CO2 in complete RPMI and Dulbecco’s modified Eagle’s medium (DMEM), respectively, containing 0.3 mg/ml glutamine, 100 IU/ml penicillin, and 100 µg/ml streptomycin) supplemented with 10% fetal calf serum (Gibco, Carlsbad, CA, USA). The transient transfection in HEK293 cells was carried out in 75 cm flask containing 10^7 cells using Lipofectamine 2000 and 5 µg of IR-Rluc and 5 µg of IRS1-YFP (for BRET and phosphorylation experiments) as previously described. All assays were performed 48 hours post-transfection.
(§2) BRET technology was used for IR activation and its interaction with IRS1 as previously described. […] Following treatments, 10 μl of Coelenterazine h was added to a final concentration of 5 µ M and BRET measurements were carried out using the Tristar 2 multi-label plate reader (Berthold, Germany), allowing luminescence recording and signal integration at 480 nm and 540 nm.
For BRET, the data were normalized by taking as 100% of the maximal insulin-induced BRET signal in the vehicle and analyzed using GraphPad Prism software (San Diego, CA, USA). Statistical analyses were performed statistical significance between the different treatments and conditions as indicated in the figures and tables and their captions. […] The significance is indicated in the figures by stars (****p-value < 0.0001, ***p-value < 0.001, ** p-value < 0.01, * p-value < 0.05), and the absence of stars means non-significant (p-value > 0.05). However, the two-way ANOVA was used for multiple comparisons to determine the statistical significance between the different peptides when compared to each other in the different assays as described in the tables. In this case, the different letters indicate statistically significant effects (p-value < 0.05), while the same letters indicate no significant difference between the different treatments compared to each other.

HepG2 cells = assay: Glucose uptake assay (Glucose Uptake-Glo) in HepG2 cells; format: cell-based, human; details: 1 hour, 37°C; for glucose uptake, specific luminescence signal, Average: Average of Experiments 1-5, HepG2, 0.1 mg/ml peptide or 1 μM insulin, minimal data set for Figure 5; for % of glucose uptake: HepG2 cells, 0.1 mg/ml peptide or 1 μM insulin, % of insulin's response taken as 100%, mean ± SD of five independent experiments in triplicate
Procedure: Glucose uptake in HepG2 cells was carried out using Glucose Uptake-Glo Assay (Promega). For this, cells seeded in a 96-well white plate (50,000 cells/well) were first washed with PBS and starved in phenol red-, glucose-, and serum-free medium (Dulbecco’s modified Eagle’s medium containing 0.01 mM HEPES, 0.3 mg/ml glutamine, 100 IU/ml penicillin, and 100 µg/ml streptomycin). […] The treatment was removed, and the cells were washed once with PBS and then incubated with 50 μL/well of freshly prepared 2-deoxyglucose (500 μM) for 10 minutes at room temperature. The uptake process was stopped and neutralized, followed by the addition of 50 μl/well of 2-deoxyglucose-6-phosphate (2DG6P) detection reagent and incubation for 15-60 minutes at room temperature. The glucose-6-phosphate dehydrogenase (G6PDH) oxidizes 2DG6P to 6-phosphodeoxygluconate (6PDG) and reduces NADP + to NADPH. The reductase uses NADPH to convert the proluciferin to luciferin, which is then used by Ultra-Glo™ recombinant luciferase to produce luminescence. This luminescence, proportional to the amount of 2-deoxyglucose transported inside the cells upon treatment, was then measured using a 0.3–1 second integration on GloMax® Discover luminometer according to Glucose Uptake-Glo™ protocol.

[2] = target: T1, insulin receptor (IR); interaction of IR-Rluc with IRS1-YFP in HEK293 cells (Homo sapiens, UniProt P06213); assay: BRET assay of IR activation (IR-Rluc/IRS1-YFP), single treatment, dose-response; format: cell-based; details: HEK293, 1 hour, 37°C, minimal data set for Figure 1, average
T1 construct: expressed in transfected cells; host or cells: HEK293 cells, transient co-transfection; plasmids provided by Dr. Tarik Issad (Cochin Institute, Paris)
Procedure: as §1, §2
Statistical analyses were performed statistical significance between the different treatments and conditions as indicated in the figures and tables and their captions. […] The significance is indicated in the figures by stars (****p-value < 0.0001, ***p-value < 0.001, ** p-value < 0.01, * p-value < 0.05), and the absence of stars means non-significant (p-value > 0.05). However, the two-way ANOVA was used for multiple comparisons to determine the statistical significance between the different peptides when compared to each other in the different assays as described in the tables.

[3] = HEK293, read-out: BRET, % of the maximal response of insulin, Average, peptide 0.001 mg/ml
[4] = HEK293, read-out: BRET, % of the maximal response of insulin, Average, peptide 0.005 mg/ml
[5] = HEK293, read-out: BRET, % of the maximal response of insulin, Average, peptide 0.01 mg/ml
[6] = HEK293, read-out: BRET, % of the maximal response of insulin, Average, peptide 0.05 mg/ml
[7] = HEK293, read-out: BRET, % of the maximal response of insulin, Average, peptide 0.1 mg/ml
[8] = HEK293, read-out: BRET, % of the maximal response of insulin, Average, peptide 0.5 mg/ml
[9] = HEK293, read-out: BRET, % of the maximal response of insulin, Average, peptide 1 mg/ml

T1 sequence (P06213 28-758 limits assumed): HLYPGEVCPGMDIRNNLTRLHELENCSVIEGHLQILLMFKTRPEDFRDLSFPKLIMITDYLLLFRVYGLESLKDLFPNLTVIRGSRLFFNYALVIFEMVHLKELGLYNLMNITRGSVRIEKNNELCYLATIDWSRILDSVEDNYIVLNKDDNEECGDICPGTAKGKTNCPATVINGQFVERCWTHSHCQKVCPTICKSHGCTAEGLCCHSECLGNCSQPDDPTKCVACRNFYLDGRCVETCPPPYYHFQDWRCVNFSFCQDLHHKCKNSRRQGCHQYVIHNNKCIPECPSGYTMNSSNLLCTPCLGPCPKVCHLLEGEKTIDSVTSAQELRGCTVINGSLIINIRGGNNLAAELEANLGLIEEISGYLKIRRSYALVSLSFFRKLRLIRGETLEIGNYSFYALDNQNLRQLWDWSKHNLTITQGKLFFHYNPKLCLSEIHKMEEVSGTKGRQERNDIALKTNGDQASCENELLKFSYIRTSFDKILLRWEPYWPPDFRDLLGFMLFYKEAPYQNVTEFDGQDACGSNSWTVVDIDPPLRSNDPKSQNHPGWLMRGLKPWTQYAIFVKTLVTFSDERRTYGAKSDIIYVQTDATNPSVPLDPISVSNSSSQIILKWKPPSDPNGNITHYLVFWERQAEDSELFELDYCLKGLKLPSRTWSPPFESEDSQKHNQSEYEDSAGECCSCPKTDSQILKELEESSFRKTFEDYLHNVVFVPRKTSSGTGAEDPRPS
T1 sequence (P06213 763-1382 limits assumed): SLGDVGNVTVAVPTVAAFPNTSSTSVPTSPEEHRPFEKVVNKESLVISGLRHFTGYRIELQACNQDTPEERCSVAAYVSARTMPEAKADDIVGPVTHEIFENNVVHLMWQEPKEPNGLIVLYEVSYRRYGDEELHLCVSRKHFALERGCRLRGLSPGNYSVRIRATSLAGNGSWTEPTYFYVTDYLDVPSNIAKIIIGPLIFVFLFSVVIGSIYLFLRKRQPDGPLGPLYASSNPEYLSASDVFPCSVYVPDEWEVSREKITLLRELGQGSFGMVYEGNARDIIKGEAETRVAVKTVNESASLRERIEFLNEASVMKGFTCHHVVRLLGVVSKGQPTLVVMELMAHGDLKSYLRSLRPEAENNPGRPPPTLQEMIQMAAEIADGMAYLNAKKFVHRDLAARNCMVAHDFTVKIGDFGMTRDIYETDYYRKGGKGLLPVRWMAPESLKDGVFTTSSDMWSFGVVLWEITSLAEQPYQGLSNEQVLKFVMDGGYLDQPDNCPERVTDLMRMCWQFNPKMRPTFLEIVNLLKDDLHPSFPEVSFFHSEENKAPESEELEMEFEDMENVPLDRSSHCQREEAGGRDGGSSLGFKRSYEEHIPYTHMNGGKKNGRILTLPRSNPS

Molecule	insulin-induced BRET, % of insulin's response in the vehicle, Average [1]	insulin-induced BRET, % of insulin's response in the vehicle ([1]; Experiment 1)	insulin-induced BRET, % of insulin's response in the vehicle ([1]; Experiment 2)	insulin-induced BRET, % of insulin's response in the vehicle ([1]; Experiment 3)	insulin-induced BRET, % of insulin's response in the vehicle ([1]; Experiment 4)	insulin-induced BRET, % of insulin's response in the vehicle ([1]; Experiment 5)	insulin-induced BRET, % of insulin's response in the vehicle ([1]; Experiment 6)	insulin-induced BRET, % of insulin's response in the vehicle ([1]; Experiment 7)	% of maximal BRET (insulin-induced) [1]	profile on insulin-dependent BRET response in combined treatment (in words) [1]	glucose uptake, specific luminescence signal, Average (HepG2 cells)	% of glucose uptake (HepG2 cells)	Emax [2, 3]	Emax [2, 4]	Emax [2, 5]	Emax [2, 6]	Emax [2, 7]	Emax [2, 8]	Emax [2, 9]
CC(C)C[C@H](NC(=O)[C@H](Cc1ccccc1)NC(=O)[C@@H]1CCCN1C(=O)[C@H](CCCNC(=N)N)NC(=O)[C@@H](N)CC(C)C)C(=O)O [Peptide P1, LRPFL] (H-LRPFL-OH)	103.6	73.6	47.0	66.9	125.9	98.2	190.8	122.6	104 ± 18^a %	non-efficient	1669300	66 ± 18^b %	10.1%	16.5%	37.6%	43%	58.5%	56.7%	55.3%
CC(C)C[C@H](N)C(=O)N1CCC[C@H]1C(=O)N[C@H](C(=O)N1CCC[C@H]1C(=O)N[C@@H](CCC(N)=O)C(=O)O)C(C)C [Peptide P3, LPVPQ] (H-LPVPQ-OH; N-terminus and C-terminus assumed)	110.8	81.5	130.9	81.8	135.0	93.0	152.3	100.8	111 ± 11^a %	non-efficient	1788200	71 ± 12^b %	6%	11%	19.1%	48.8%	47.7%	46.3%	41.4%
CC[C@H](C)[C@H](NC(=O)[C@@H]1CCCN1C(=O)[C@@H](N)Cc1ccc(O)cc1)C(=O)O [Peptide P9, YPI] (H-Tyr-Pro-Ile-OH; N-terminus and C-terminus assumed)	108.5	96.6	93.8	107.9	136.4	113.3	127.9	83.8	109 ± 7^a %	non-efficient	2361900	–	3.3%	14.7%	24.7%	29.3%	40.2%	39.3%	31.7%
Human insulin [reference compound]	–	–	–	–	–	–	–	–	100^a %	–	2522500	100^a %	–	–	–	–	–	–	–

From publication PMC11952234, “Functional profiling of synthetic camel milk-derived peptides with implication in glucose transport and diabetes” (PLOS One, 2025)
